Laboratory results as given in patent US20030073683A1, “Administration of noncompetitive AMPA receptor antagonist for neuroprotection after traumatic brain injury” (priority 2001, published 2003).
Like-named read-outs stand apart in the source and are kept apart here.

Key:
[1] = system: global cerebral ischemia in rats; conditions: cited from earlier work
[2] = system: fluid-percussion brain injury; experiment: Fluid-percussion brain injury in rats: histopathological contusion areas; assay type: in vivo, rat; conditions: for reduction of mean contusion area vs vehicle-treated rats: 4 mg/kg bolus + 4 mg/kg/h over 72 hr I.V.
From the text: (§1) Rat Model. Fasted male Sprague-Dawley rats, weighing 290-390 g were employed. The animals were initially anesthetized with 3% halothane, 70% nitrous oxide, and a balance of oxygen. Rats were positioned in a stereotaxic frame following endotracheal intubation. A 4.8-mm craniotomy was made overlying the right parietal cortex (3.8 mm posterior to bregma and 2.5 mm lateral to midline) as previously described by Belayev et al., J. Neurotrauma, 16: 445-453 (1999) and Dietrich et al., J. Neuropathol. (Beri.) 87: 250-258 (1994). Next, a plastic injury tube was positioned over the exposed dura matter. Dental acrylic was then used to bond the injury tube to surrounding structures. After the acrylic had hardened, the injury tube was plugged with a Gelfoam sponge, the scalp closed with sutures, and the animal was returned to its cage and allowed to recover overnight.
(§2) Fluid-Percussion Brain Injury. The following day, the rats were reanesthetized with halothane, orotracheally intubated, and maintained on 70% nitrous oxide, 1.5% halothane, and a balance of oxygen. Temperature probes were inserted into the rectum (CMA/150 Temperature Controller, CMA/Microdialysis AB, Stockholm, Sweden) and the left temporalis muscle (Thermocouple Probe, Omega Engineering, Stanford, Conn.), and separate heating lamps were used to maintain rectal temperature and temporalis muscle temperature at 37.0-37.5° C. The right femoral artery and vein were catheterized for continuous blood pressure monitoring and periodic blood sampling for arterial gases, pH, hematocrit, and plasma glucose (measurements taken 15 min before TBI and 15 min after TBI). Rectal temperature and body weight was monitored before trauma and periodically for 7 days after trauma. Mean arterial blood pressure (MABP) was measured via an indwelling femoral arterial catheter connected to a precalibrated Statham pressure transducer (model P23XL, Viggo-Spectramed Inc., Oxnard, Calif., USA) and was recorded continuously (model RS3400 polygraph, Gould, Inc., Valley View, Ohio, USA). Serial measurements were made of arterial blood gases and pH (model ABL 330, Radiometer America, Inc. Westlake, Ohio, USA) and plasma glucose (model 2300 Stnt; Yellow Springs Instrument Co., Inc., Yellow Springs, Ohio, USA).
(§3) A fluid-percussion device was connected to the injury tube of the rat's skull. This device consisted of a saline-filled cylindrical Plexiglas reservoir having a rubber-coated piston at one end, a transducer housing to permit measurement of pressure transients, and a connecting device adapted to the rat's skull. Injury was induced by the descent of a pendulum, conveying a pressure transient of 1.5-2.0 atm. to the right dorsolateral parietal cortex (see Dietrich et al., J. Neuropathol. (Beri.), 87: 250-258 (1994)). Sham-operated animals (n=9) underwent similar surgical procedures but were not injured.
(§4) Drug-Infusion System. The femoral-vein cannula was tunneled subcutaneously so as to exit from the dorsal neck and was connected to a swivel device (Stoelting Co., Wood Dale, Ill., USA) attached to the roof of a spacious cage. This device allowed bi-directional rotation. PE-50 tubing extending from the other end of the device was joined to a disposable syringe attached to an infusion pump (KDS-100, KD Scientific, Boston, Mass., USA). This tethering system allowed the rats free movement without interfering with the patency of the cannula during drug administration.
(§5) Drug Administration. Talampanel (Lilly Research Laboratories, Indianapolis, Ind., USA; bolus infusion of 4 mg/kg followed by infusion of 4 mg/kg/h over 72 hr) or vehicle (40% 2-hydroxylpropyl-β-cyclodextrin solution, 0.3-ml bolus plus 0.3 ml/kg/hr over 72 hr) was administered I.V. beginning 30 min or 3 hr after trauma or sham operation.
Histopathological Analysis of Brain Trauma. Animals were allowed to survive for 7 days following fluid-percussion brain injury. […]

[3] = system: fluid-percussion brain injury; experiment: Fluid-percussion brain injury in rats: normal pyramidal neuron counts in hippocampus; assay type: in vivo, rat
From the text: as §1, §2, §3, §4, §5
Histopathology of Hippocampus. […]

Sprague-Dawley rats = conditions: rat, in vivo
From the text: Fluid-Percussion Brain Injury. The following day, the rats were reanesthetized with halothane, orotracheally intubated, and maintained on 70% nitrous oxide, 1.5% halothane, and a balance of oxygen. Temperature probes were inserted into the rectum (CMA/150 Temperature Controller, CMA/Microdialysis AB, Stockholm, Sweden) and the left temporalis muscle (Thermocouple Probe, Omega Engineering, Stanford, Conn.), and separate heating lamps were used to maintain rectal temperature and temporalis muscle temperature at 37.0-37.5° C. The right femoral artery and vein were catheterized for continuous blood pressure monitoring and periodic blood sampling for arterial gases, pH, hematocrit, and plasma glucose (measurements taken 15 min before TBI and 15 min after TBI). Rectal temperature and body weight was monitored before trauma and periodically for 7 days after trauma. Mean arterial blood pressure (MABP) was measured via an indwelling femoral arterial catheter connected to a precalibrated Statham pressure transducer (model P23XL, Viggo-Spectramed Inc., Oxnard, Calif., USA) and was recorded continuously (model RS3400 polygraph, Gould, Inc., Valley View, Ohio, USA). Serial measurements were made of arterial blood gases and pH (model ABL 330, Radiometer America, Inc. Westlake, Ohio, USA) and plasma glucose (model 2300 Stnt; Yellow Springs Instrument Co., Inc., Yellow Springs, Ohio, USA). […]

rats = experiment: Preliminary experiment with continuous infusion in rats (clinical signs); assay type: in vivo, rat; conditions: doses of 8 and 10 mg/kg (5, 8 or 10 mg/kg tested)
Experimental: The dosage was chosen because talampanel has been studied in vivo in a gerbil model of global ischemia (Lodge et al., Neuropharmacology, 35: 1681-1688 (1996)). […] Therefore, the dose was reduced to about 5 mg/kg.

[4] = system: conscious male Sprague-Dawley rats; experiment: Cardiovascular effects in conscious rats; assay type: in vivo, rat; conditions: single oral doses of 0.1, 0.3, 3 or 10 mg/kg; 2 hr
Experimental: Talampanel was examined for potential cardiovascular effects in conscious male Sprague-Dawley rats for 2 hr, following single oral doses of 0.1, 0.3, 3 or 10 mg/kg. The cardiovascular variables measured included systolic, diastolic and mean arterial pressure, arterial pulse pressure, and heart rate. […] Thus, taken together, these in vitro and in vivo studies makes AMPA antagonists and specifically talampanel attractive candidates for a number of therapeutic indications (data not shown).

[5] = system: global ischemia in gerbils; conditions: 2.5-5 mg/kg, cited from earlier work
flexor reflexes in cats = conditions: in vivo; cited from earlier work
kindled seizures = conditions: cited from earlier work
[6] = system: phenytoin-resistant status epilepticus; conditions: in vivo; cited from earlier work
[7] = system: severe epilepsy not responsive to other drugs; conditions: patients with severe epilepsy not responsive to other drugs; cited from earlier work
[8] = treatment begun at 3 hr after trauma

For CC1=NN=C(c2ccc(N)cc2)c2cc3c(cc2C1)OCO3 [GYKI 52466, 1-(4-aminophenyl)-4-methyl-7,8-methylene-dioxy-5H-2,3-benzodiazepine], the “neuronal damage in the CA1 sector of the hippocampus” value ([1]; drug pretreatment but not posttreatment) is listed as “significantly attenuated”, the striatal neuronal damage ([1]; pretreatment or posttreatment) is listed as “not affected by either drug treatment” and the “functional deficits (learned maze responses)” value ([1]; pretreatment vs posttreatment) is listed as “pretreatment but not posttreatment reduced functional deficits”.

With CC(=O)N1N=C(c2ccc(N)cc2)c2cc3c(cc2C[C@H]1C)OCO3 [talampanel, (R)-7-acetyl-5-(4-aminophenyl)-8,9-dihydro-8-methyl-7H-1,3-dioxolo [4,5-h][2,3]benzodiazepine] the “reduction of mean contusion area vs vehicle-treated rats” value ([2]; bregma level −5.8 mm, treatment 30 min after trauma, 7 days after trauma) was 85%, the “reduction of mean contusion area vs vehicle-treated rats” value ([2]; bregma level −6.8 mm, treatment 30 min after trauma, 7 days after trauma) was 97% and the “reduction of total contusion area vs vehicle-treated rats” value ([2]; treatment 30 min after trauma, 7 days after trauma) was 70%. For the same compound, the overall contusion volume ([2]; treatment 30 min after trauma, moderate fluid-percussion brain injury) was “significant reduction”, the “contusion foci in brain sections (photomicrographs)” value ([2]; treatment 30 min after trauma, vs vehicle-treated rats) was “smaller contusion foci, typically confined to the deeper cortical layers” and the neuroprotective effect ([2]; treatment begun at 3 hr) was “lost”. For the same compound, the “contusion area at bregma levels vs vehicle-treated rats” value [2, 8] was “reduced only at one bregma level (−6.8 mm)”, the “total contusion area, statistical comparison with vehicle-treated rats” value [2, 8] was “did not differ statistically” and the “numbers of normal neurons in CA1 and CA3 sectors of sham animals” value ([3]; sham animals, vehicle or talampanel (30 min or 3 hr)) was “identical in all groups”. The “survival of pyramidal neurons in the CA1 sector of hippocampus” value ([3]; treatment 30 min after trauma) was “increased survival”, the “numbers of normal neurons in CA3 sector, statistical comparison with vehicle” value ([3]; treatment at 30 min) was “did not differ statistically between groups” and the “normal pyramidal-neuron counts CA1 vs vehicle” value ([3]; treatment begun at 3 hr) was “almost identical in both groups”. For the same compound, the “normal pyramidal-neuron counts in the hippocampal CA3 sector vs vehicle” value ([3]; treatment begun at 3 hr) was “did not differ between groups”, the “ischemic damage in all three subsectors of the hippocampal CA1 sector vs vehicle” value ([3]; treatment starting at 30 min) was “significantly attenuated ischemic damage” and the mortality (Sprague-Dawley rats) was “None of the animals died”. For the same compound, the “rectal and cranial temperatures, arterial blood gases, plasma glucose, arterial blood pressure, body weight” value (Sprague-Dawley rats) was “no significant differences between groups”, the clinical signs (rats) was “clinical signs of ataxia” and the “systolic, diastolic and mean arterial pressure, arterial pulse pressure, heart rate” value [4] was “No changes were observed”. For the same compound, the “survival of hippocampal CA1 neurons / neuroprotection after global ischemia” value [5] was “significantly neuroprotective”, the “survival of hippocampal CA1 neurons / neuroprotection after global ischemia” value ([5]; listed as Talampanel) was “led to survival of hippocampal CA1 neurons” and the flexor reflexes (flexor reflexes in cats) was “inhibited flexor reflexes”. For the same compound, the chemically kindled seizures (kindled seizures; 12.5 mg/kg) was “suppressed chemically kindled seizures”, the electrically kindled seizures (kindled seizures; 20 mg/kg) was “suppressed” and the “seizures in status epilepticus” value [6] was “arrested seizures in a dose-related manner”. The “clinical outcome in patients” value [7] was “positive results”.
